For four compounds, IC50, MIC and Activity results are on record in ChEMBL document CHEMBL3352707, “Antimycobacterial activity of natural products and synthetic agents: pyrrolodiquinolines and vermelhotin as anti-tubercular leads against clinical multidrug resistant isolates of Mycobacterium tuberculosis” (Eur J Med Chem, 2015).

Converted amounts (≈) assume the structure as drawn.

Data set [1] relates to MRC5. In words: Cytotoxicity against human MRC5 cells by MTT assay. In kind it is cell-based. A general note: Formazan colour is commonly taken as a measure of viable cells.
Data set [2] concerns Mycobacterium tuberculosis. In words: Antimycobacterial activity against Mycobacterium tuberculosis H37Rv after 7 days by microplate Alamar blue assay. In kind it is functional. Conditions: 168 h.
In data set [3] the test system is Mycobacterium tuberculosis. In words: Antimycobacterial activity against p-Aminosalicylic acid-resistant Mycobacterium tuberculosis H37Rv ATCC 35821 after 7 days by microplate Alamar blue assay. In kind it is functional. Conditions: H37Rv ATCC 35821, 168 h. On the technique in general: Alamar Blue is a resazurin reagent that responds to reducing activity.
The test system of data set [4] is Mycobacterium tuberculosis. In words: Antimycobacterial activity against Mycobacterium tuberculosis H37Ra after 7 days by microplate Alamar blue assay. Conditions: 168 h. The format is functional.
Data set [5] concerns MRC5. In words: Cytotoxicity against human MRC5 cells at 50 ug/ml by MTT assay. The format is cell-based.

Consider `C[n+]1cc2c(cn3c4ccccc4ccc23)c2ccccc21.[I-]`, for which, in the data set with MRC5 [1], the IC50 was found to be 30 µg/mL. Moreover, the MIC in data set [2] came out at 6.2 µg/mL; in data set [3], 1.5 µg/mL; in data set [4], 1.5 µg/mL.

Turning to `CN1Cc2c(cn3c2ccc2ccccc23)-c2ccccc21`, the IC50 with MRC5 [1] amounted to 23.5 µg/mL (≈ 82.6 µM). Moreover, the MIC worked out at 6.2 µg/mL (≈ 21.8 µM) in data set [2], 1.5 µg/mL (≈ 5.27 µM) in data set [3] and 0.7 µg/mL (≈ 2.46 µM) in data set [4].

On to `COc1cccc2c1C(=O)c1c(O)c3c(c(O)c1C2=O)C[C@@](O)(C(=O)CO)C[C@@H]3O[C@H]1C[C@H](N)[C@H](O)[C@H](C)O1` [DOXORUBICIN], for which, in the data set with MRC5 [5], the Activity entry is “Non-toxic”.

Turning to `C/C=C/C1=CC=C/C(=C2\C(=O)CNC2=O)O1` [VERMELHOTIN], inhibition in the data set on MRC5 [1] was half-maximal at 6.97 µg/mL (≈ 32.1 µM) (IC50). The MIC was 6.2 µg/mL (≈ 28.5 µM) in data set [2], 3.1 µg/mL (≈ 14.3 µM) in data set [3] and 3.1 µg/mL (≈ 14.3 µM) in data set [4].

Usually IC50 stands for the concentration needed to halve the response being measured. One may read the MIC as the lowest concentration found to suppress growth.
